Experiments:
[1] = system: DA1 receptor; assay: Goldberg in situ renal arterial preparation (renal DA1 assay), intra-arterial injection; type: in vivo, dog; details: for Relative Efficacy to DA1 Standard: optimal response of test compound divided by optimal response of dopamine; for ED50: renal blood flow increase, i.a. bolus into renal artery, anesthetized dog; for Relative Potency to DA1 Standard: standard (dopamine) ED50 divided by test compound ED50
Description: (§1) The compounds were subsequently tested following intra-arterial administration in an in situ renal and femoral arterial preparation in the dog, as developed by L.I. Goldberg, to test for DA1 and DA2 dopamine activity, respectively. Details of the methodology are provided in the European J. Pharmacol. 89 :137, 1983, as well as in Hypertension 6 :1-25, 1984.
as §1, with “compounds of this invention” for “compounds”, “were” for “were subsequently”, “Pharmacol. ,” for “Pharmacol.”, “Hypertension ,” for “Hypertension”, “1984. J. L. McNay, L. I. Goldberg JPET 151 :23-31, 1966.” for “1984.”
(§2) The compounds were injected directly into the renal or femoral artery for analysis of DA, or DA2 activity, respectively. […] The compounds were tested for relative activity in comparison to the standard DA, agonist, dopamine or the standard DA2 agonist, DPDA. Specific DA, or DA2 activity of the tested compound was verified by Sch 23390 or domperidone blockade.
Adult mongrel dogs of either sex (12-20 kg) were anesthetized with pentobarbital sodium (33 mg/kg, i.v.). The animals were intubated and ventilated with room air using a Harvard respirator.
as §1, with “compounds of this invention” for “compounds”, “were” for “were subsequently”, “Pharmacol. ,” for “Pharmacol.”, “Hypertension ,” for “Hypertension”, “1984. J. L. McNay, L. I. Goldberg JPET 151 :23-31, 1966” for “1984.”
as §2, with “of DA1” for “of DA,”, “standard DA1” for “standard DA,”
The abdominal aorta was catheterized with a Millar micro-tip (size: 5F) transducer via the right femoral artery for blood pressure monitoring. The right femoral vein was cannulated with PE-160 tubing for iv saline infusion, as well as supplemental pentobarbital administration. The left renal artery was isolated through a lateral abdominal incision. An electromagnetic flowprobe of the appropriate size (8-11 mm circ.) was placed around the artery and connected to a Carolina Medical electromagnetic flowmeter. Surface ECG leads were placed subcutaneously on the chest and limbs to monitor heart rate. A 25 gauge 3/4" needle bent 90°, 4 mm from the tip, was placed in the renal artery proximal to the probe and connected to an infusion pump delivering saline at a constant rate of 1 ml/min. Following a saline and 1µg norepinephrine (NE) challenge, both given in an injection volume of 0.2 ml, the animal was treated with a phenoxybenzamine, 0.5 mg/kg/min i.a., infusion for a duration of 10-20 minutes as necessary to achieve a complete blockade of the NE challenge. Blood pressure was maintained by supplemental saline infusion (10-20 ml/kg, iv). Bradykinin, a standard for nonspecific vasodilation, was given at 0.60 nmole doses, in 0.2 ml saline, i.a., prior to generating a dose response curve for dopamine in which 4-fold increasing doses, ranging from 3 to 48 nmoles, were injected i.a. in 0.2 ml of saline (i.a. bolus). Test compounds were injected similarly in 4-fold increasing doses up to a maximum of 3000 nmoles. Compounds were then repeated at their optimal dose following Sch 23390 pretreatment (0.05 - 0.10 mg/kg, iv).
Efficacy ratios were determined by division of the optimal response of the test compound by the optimal response of the standard agent.

[2] = system: conscious restrained spontaneously hypertensive rat; assay: Spontaneous Hypertensive Rats - antihypertensive activity, conscious restrained, oral; type: in vivo; details: for Peak decreases, mean blood pressure / Peak decreases, systolic blood pressure / heart rate following administration / duration of action: SHR, oral; for duration of action: blood pressure decrease; for Diastolic Blood Pressure (mm Hg) / Heart Rate (beats/ min) / Mean Blood Pressure (mm Hg) / Systolic Blood Pressure (mm Hg): change from control (XΔ ± SD), n = 4
Description: Finally, these compounds were screened for oral antihypertensive activity in the conscious restrained rat. Adult male SHR were instrumented for blood pressure and heart rate measurements under light ether anesthesia. The animals were maintained on a plexiglass restraining board following surgery, and were allowed a 1 hour recovery period prior to the oral administration of the test compounds.
The compounds of this invention were screened for oral antihypertensive activity in the conscious restrained spontaneously hypertensive rat.
Male spontaneously hypertensive rats, SHR/NCrIBr (320-410 g) were fasted overnight. The following morning the left femoral artery and vein of each rat was cannulated under light ether anesthesia. Following surgery, the rats were placed on a rat restraining board and allowed to recover from the effects of the ether for 1 hour. ECG leads were placed on the animal's chest to monitor heart rate. Animals were divided into groups of 4 and dosed with the test compounds.
Blood pressure and heart rate readings were taken at 5 minute intervals for the first 15 minutes and […] thereafter for a duration of 4 hour post-compound administration. Data was evaluated by two- tailed paired t-tests.

Br.Br.CCCN(CCCCCCN1CCC[C@@H]1Cc1ccc(O)c(O)c1)CCc1ccc(O)cc1 [Test Compound 1, (R)-2-(3,4-dihydroxybenzyl)-1-[6-(N-(4-hydroxyphenethyl)-N-propylamino)hexyl]pyrrolidine dihydrobromide]
Relative Efficacy to DA1 Standard [1]: 1.10
ED50 [1]: 0.87 nmol
Relative Potency to DA1 Standard [1]: 6.44
Peak decreases, mean blood pressure [2]: about 20%
Peak decreases, systolic blood pressure [2]: about 20%
heart rate following administration [2]: not significantly altered
duration of action [2]: up to 4 hours

Br.Br.CCCN(CCCCCCN1CCC[C@@H]1Cc1ccc(O)c(O)c1)CCc1cccc(O)c1 [Test Compound 2, (R)-2-(3,4-dihydroxybenzyl)-1-[6-(N-(3-hydroxyphenethyl)-N-propylamino)hexyl]pyrrolidine dihydrobromide]
Relative Efficacy to DA1 Standard [1]: 0.93
ED50 [1]: 0.34 nmol
Relative Potency to DA1 Standard [1]: 17.47
Peak decreases, mean blood pressure [2]: 17%
Peak decreases, systolic blood pressure [2]: 17%
heart rate following administration [2]: not significantly altered
duration of action [2]: up to 4 hours
Diastolic Blood Pressure (mm Hg) ([2]; po 3 mg/kg, 1 hour): -8 ± 12 mm Hg
Heart Rate (beats/ min) ([2]; po 3 mg/kg, 1 hour): -5 ± 12 beats/ min
Mean Blood Pressure (mm Hg) ([2]; po 3 mg/kg, 1 hour): -12 ± 18 mm Hg
Systolic Blood Pressure (mm Hg) ([2]; po 3 mg/kg, 1 hour): -13 ± 25 mm Hg
Diastolic Blood Pressure (mm Hg) ([2]; po 3 mg/kg, 2 hours): -6 ± 3 mm Hg
Heart Rate (beats/ min) ([2]; po 3 mg/kg, 2 hours): 5 ± 11 beats/ min
Mean Blood Pressure (mm Hg) ([2]; po 3 mg/kg, 2 hours): -7 ± 8 mm Hg
Systolic Blood Pressure (mm Hg) ([2]; po 3 mg/kg, 2 hours): -9 ± 13 mm Hg
Diastolic Blood Pressure (mm Hg) ([2]; po 3 mg/kg, 3 hours): -4 ± 17 mm Hg
Heart Rate (beats/ min) ([2]; po 3 mg/kg, 3 hours): 6 ± 18 beats/ min
Mean Blood Pressure (mm Hg) ([2]; po 3 mg/kg, 3 hours): -8 ± 14 mm Hg
Systolic Blood Pressure (mm Hg) ([2]; po 3 mg/kg, 3 hours): -19 ± 22 mm Hg
Diastolic Blood Pressure (mm Hg) ([2]; po 3 mg/kg, 4 hours): -9 ± 7 mm Hg
Heart Rate (beats/ min) ([2]; po 3 mg/kg, 4 hours): 10 ± 23 beats/ min
Systolic Blood Pressure (mm Hg) ([2]; po 3 mg/kg, 4 hours): -29 ± 19 mm Hg
Diastolic Blood Pressure (mm Hg) ([2]; po 10 mg/kg, 1 hour): -19 ± 3 mm Hg
Heart Rate (beats/ min) ([2]; po 10 mg/kg, 1 hour): -11 ± 6 beats/ min
Mean Blood Pressure (mm Hg) ([2]; po 10 mg/kg, 1 hour): -21 ± 3 mm Hg
Systolic Blood Pressure (mm Hg) ([2]; po 10 mg/kg, 1 hour): -26 ± 6 mm Hg
Diastolic Blood Pressure (mm Hg) ([2]; po 10 mg/kg, 2 hours): -11 ± 21 mm Hg
Heart Rate (beats/ min) ([2]; po 10 mg/kg, 2 hours): -6 ± 8 beats/ min
Mean Blood Pressure (mm Hg) ([2]; po 10 mg/kg, 2 hours): -21 ± 8 mm Hg
Systolic Blood Pressure (mm Hg) ([2]; po 10 mg/kg, 2 hours): -28 ± 10 mm Hg
Diastolic Blood Pressure (mm Hg) ([2]; po 10 mg/kg, 3 hours): -19 ± 8 mm Hg
Heart Rate (beats/ min) ([2]; po 10 mg/kg, 3 hours): -5 ± 11 beats/ min
Mean Blood Pressure (mm Hg) ([2]; po 10 mg/kg, 3 hours): -27 ± 4 mm Hg
Systolic Blood Pressure (mm Hg) ([2]; po 10 mg/kg, 3 hours): -36 ± 23 mm Hg
Diastolic Blood Pressure (mm Hg) ([2]; po 10 mg/kg, 4 hours): -16 ± 7 mm Hg
Heart Rate (beats/ min) ([2]; po 10 mg/kg, 4 hours): 1 ± 3 beats/ min
Mean Blood Pressure (mm Hg) ([2]; po 10 mg/kg, 4 hours): -22 ± 12 mm Hg
Systolic Blood Pressure (mm Hg) ([2]; po 10 mg/kg, 4 hours): -31 ± 20 mm Hg
Diastolic Blood Pressure (mm Hg) ([2]; po 30 mg/kg, 1 hour): -6 ± 5 mm Hg
Heart Rate (beats/ min) ([2]; po 30 mg/kg, 1 hour): -1 ± 10 beats/ min
Mean Blood Pressure (mm Hg) ([2]; po 30 mg/kg, 1 hour): -5 ± 9 mm Hg
Systolic Blood Pressure (mm Hg) ([2]; po 30 mg/kg, 1 hour): -4 ± 14 mm Hg
Diastolic Blood Pressure (mm Hg) ([2]; po 30 mg/kg, 2 hours): -17 ± 6 mm Hg
Heart Rate (beats/ min) ([2]; po 30 mg/kg, 2 hours): 9 ± 10 beats/ min
Mean Blood Pressure (mm Hg) ([2]; po 30 mg/kg, 2 hours): -14 ± 14 mm Hg
Systolic Blood Pressure (mm Hg) ([2]; po 30 mg/kg, 2 hours): -18 ± 10 mm Hg
Diastolic Blood Pressure (mm Hg) ([2]; po 30 mg/kg, 3 hours): -15 ± 5 mm Hg
Heart Rate (beats/ min) ([2]; po 30 mg/kg, 3 hours): 18 ± 15 beats/ min
Mean Blood Pressure (mm Hg) ([2]; po 30 mg/kg, 3 hours): -17 ± 11 mm Hg
Systolic Blood Pressure (mm Hg) ([2]; po 30 mg/kg, 3 hours): -26 ± 17 mm Hg
Diastolic Blood Pressure (mm Hg) ([2]; po 30 mg/kg, 4 hours): -20 ± 9 mm Hg
Heart Rate (beats/ min) ([2]; po 30 mg/kg, 4 hours): 20 ± 16 beats/ min
Systolic Blood Pressure (mm Hg) ([2]; po 30 mg/kg, 4 hours): -32 ± 20 mm Hg

From patent EP0426075A1, “Benzylpyrrolidine derivatives as dopamine agonists” (SYNTEX (U.S.A.) INC., priority 1989, dated 1991)
